Several values for one entry are separate records, joined by “and”; a condition that tells them apart may be missing. Equal values may be shown once.
How the values were obtained:
[1] = system: paracetamol-induced hepatotoxicity in mice; assay: Paracetamol-induced hepatotoxicity in mice, serum biochemical parameters (Example I); format: in vivo, Swiss albino mice; conditions: for ALP / ALT / AST / Total Bilirubin / Total Protein / Triglyceride: 10 mg/kg p.o. + paracetamol 200 mg/kg p.o., 7 days, serum, mean ± SD, n=6
From the text: 3-OH-DBP (Natreon, Inc., New Brunswick, N.J., synthesized to 99% purity w/w) was in the form of a white free flowing powder. 3,8-(OH)2-DBP (Natreon, Inc., New Brunswick, N.J., synthesized to 99% purity w/w) was in the form of a pale green free flowing powder. Paracetamol (acetaminophen) was in the form of a white solid tablet.
Swiss albino mice of both sexes, weighing approximately 25-30 g, were obtained from National Research Institute of Ayurveda for Drug Development (Govt. of India), Kolkata, and were housed in polypropylene cages at 22±3° C., relative air humidity of 45 to 55%, with 12.00 hr light and dark cycle (lighting on from 6:00 AM to 6:00 PM). Mice were provided standard pellet chow (carbohydrate 65.5%, protein 17.6%, fat 6.6%) and distilled water ad libitum. The mice were acclimatized for one week in the above laboratory conditions, before being used in this experiment. All experiments were conducted between 10.00 hr and 14.00 hr. Principles of laboratory animal care (NIH publication no. 85-23, revised 1985) were followed.
The animals were randomly assigned into four groups of six animals each, as set out in Table 1. […] After 1 hr of last treatment, blood samples were collected and serum was separated.

[2] = system: paracetamol-induced hepatotoxicity in mice; assay: Synergistic hepatoprotective activity of DBPs against paracetamol-induced hepatotoxicity (Example IV); format: in vivo; conditions: for ACP / ALP / ALT / AST / Total Protein: paracetamol 200 mg/kg, mean ± SEM, n=4
[3] = system: alcohol-induced hepatotoxicity in mice; assay: Synergistic hepatoprotective activity of DBPs against alcohol-induced hepatotoxicity (Example IV); conditions: for ACP / ALP / ALT / AST / Total Protein: alcohol 5 g/kg, mean ± SEM, n=4
Protocol: Hepatotoxicity was induced by oral administration of alcohol (ethanol: 5 g/kg) from stock 400 mg/ml twice daily for 15 days.
3-OH-DBP and 3,8-(OH)2-DBP were each separately suspended in 0.3% CMC and administered at a dose of 10 mg/kg body weight per orally for 15 days. During the 15 days treatment, body weight, food intake, and water intake were monitored at regular intervals. Following 15 days of treatment physical parameters (relative organ weight) and biochemical parameters (plasma total protein content, ALT, AST, ALP, and ACP) were studied.
3-OH-DBP (2 mg/kg body weight, 10 mg/kg body weight);
3,8-(OH)2-DBP (10 mg/kg body weight, 50 mg/kg body weight); and

[4] = female mice, doses 3-OH-DBP 2, 3,8-(OH)2-DBP 10, 1:5 combination 12 mg/kg b.w.
[5] = female mice, doses 3-OH-DBP 10, 3,8-(OH)2-DBP 50, 1:5 combination 60 mg/kg b.w.
[6] = male mice, doses 3-OH-DBP 2, 3,8-(OH)2-DBP 10, 1:5 combination 12 mg/kg b.w.
[7] = male mice, doses 3-OH-DBP 10, 3,8-(OH)2-DBP 50, 1:5 combination 60 mg/kg b.w.
[8] = female mice, doses 3-OH-DBP 2, 3,8-(OH)2-DBP 10, combination 12 mg/kg b.w.

SMILES: O=c1oc2cc(O)ccc2c2ccc(O)cc12 [3,8-(OH)2-DBP, 3,8-dihydroxy-dibenzo-alpha-pyrone]
- effect on paracetamol-induced hepatotoxicity (ALT, AST, triglyceride, bilirubin vs paracetamol group) ([1]; 10 mg/kg body weight, male (Table 2) and female (Table 3) mice): significantly attenuated and reversed the paracetamol-induced hepatotoxicity
- hepatoprotective activity against paracetamol, comparison of both test compounds ([1]; female mice, 10 mg/kg orally for 7 days, paracetamol 200 mg/kg): almost the same hepatoprotective activity
- ALP ([1]; female mice): 105.1 ± 12.40 IU/L
- ALT ([1]; female mice): 76.91 ± 16.87 IU/L
- AST ([1]; female mice): 51.76 IU/L and 51.76 ± 3.72 IU/L
- Total Bilirubin ([1]; female mice): 0.58 ± 0.30 mg/dL
- Total Protein ([1]; female mice): 5.41 ± 0.49 mg/dL
- Triglyceride ([1]; female mice): 45.13 ± 0.80 mg/dL
- ALP ([1]; male mice): 107.1 ± 19.11 IU/L
- ALT ([1]; male mice): 95.97 ± 29.52 IU/L
- AST ([1]; male mice): 85.75 ± 11.59 IU/L
- Total Bilirubin ([1]; male mice): 0.48 ± 0.14 mg/dL
- Total Protein ([1]; male mice): 5530 ± 230 mg/dL
- Triglyceride ([1]; male mice): 57.06 ± 0.90 mg/dL
- ACP, difference in values from paracetamol treated mice [2, 4]: B = (a-c = 4) U/L
- ALP, difference in values from paracetamol treated mice [2, 4]: D = (a-c = 53) IU/L
- ALT, difference in values from paracetamol treated mice [2, 4]: B = (a-c = 39) IU/L
- AST, difference in values from paracetamol treated mice [2, 4]: B = (a-c = 64) IU/L
- ACP, difference in values from paracetamol treated mice [2, 5]: E = (a-f = 5) U/L
- ALP, difference in values from paracetamol treated mice [2, 5]: E = (a-f = 48) IU/L
- ALT, difference in values from paracetamol treated mice [2, 5]: E = (a-f = 43) IU/L
- AST, difference in values from paracetamol treated mice [2, 5]: E = (a-f = 77) IU/L
- ACP [2, 4]: 12 ± 0.63^##(c) U/L
- ALP [2, 4]: 45 ± 7.9^##(c) IU/L
- ALT [2, 4]: 47 ± 12 (c) IU/L
- AST [2, 4]: 79 ± 11*,^#(c) IU/L
- Total Protein [2, 4]: 6.7 ± 0.02 g/dL
- ACP [2, 5]: 11 ± 0.41^#(f) U/L
- ALP [2, 5]: 50 ± 11^#(f)^ IU/L
- ALT [2, 5]: 43 ± 2.5^##(f) IU/L
- AST [2, 5]: 66 ± 11*,^#(f) IU/L
- Total Protein [2, 5]: 5.8 ± 0.30 g/dL
- Relative liver weight ([2]; male and female mice, paracetamol study of Example IV): significantly (p<0.01) increased
- ACP, difference in values from paracetamol treated mice [2, 6]: B = (a-c = 6.13) U/L
- ALP, difference in values from paracetamol treated mice [2, 6]: B = (a-c = 50.87) IU/L
- ALT, difference in values from paracetamol treated mice [2, 6]: B = (a-c = 18.35) IU/L
- AST, difference in values from paracetamol treated mice [2, 6]: B = (a-c = 33.82) IU/L
- ACP, difference in values from paracetamol treated mice [2, 7]: E = (a-f = 10.56) U/L
- ALP, difference in values from paracetamol treated mice [2, 7]: E = (a-f = 48.85) IU/L
- ALT, difference in values from paracetamol treated mice [2, 7]: E = (a-f = 20.56) IU/L
- AST, difference in values from paracetamol treated mice [2, 7]: E = (a-f = 46.36) IU/L
- ACP [2, 6]: 12.06 ± 0.43 (c) U/L
- ALP [2, 6]: 77.63 ± 6.81 (c) IU/L
- ALT [2, 6]: 49.28 ± 7.23 (c) IU/L
- AST [2, 6]: 68.23 ± 4.96^###(c) IU/L
- Total Protein [2, 6]: 6.97 ± 0.12 g/dL
- ACP [2, 7]: 7.63 ± 0.45^##(f) ^ U/L
- ALP [2, 7]: 79.67 ± 10.18^###(f) IU/L
- ALT [2, 7]: 47.07 ± 6.69^#(f) ^ IU/L
- AST [2, 7]: 55.69 ± 5.37^###(f) IU/L
- Total Protein [2, 7]: 6.98 ± 0.12 g/dL
- hepatoprotective activity (conclusion, Tables 15 and 16) ([2]; paracetamol-induced hepatotoxicity, male and female mice): hepatoprotective activity in a dose dependent manner
- hepatoprotective activity (conclusion, Tables 17 and 18) ([3]; alcohol-induced hepatotoxicity, male and female mice): hepatoprotective activity in a dose dependent manner
- ACP [3, 8]: 15.6 ± 0.99 U/L
- ALP [3, 8]: 84 ± 6.5 (c) IU/L
- ALT [3, 8]: 45.80 ± 5.76 (c)^ IU/L
- AST [3, 8]: 64.09 ± 7.34 (c)^ IU/L
- Total Protein [3, 8]: 6.53 ± 0.10 g/dL
- Relative liver weight ([3]; female mice, alcohol study of Example IV): significantly decreased
- ACP, difference in values from alcohol treated mice [3, 8]: (c) B = (a-c = 5.67) U/L
- ALP, difference in values from alcohol treated mice [3, 8]: B = (a-c = 55.35) IU/L
- ALT, difference in values from alcohol treated mice [3, 8]: B = (a-c = 43.04) IU/L
- AST, difference in values from alcohol treated mice [3, 8]: B = (a-c = 4.9) IU/L
- ACP [3, 6]: 11.2 ± 1.44 (c) U/L
- ALP [3, 6]: 88.1 ± 15.8 (c) IU/L
- ALT [3, 6]: 53.9 ± 3.99 (c) IU/L
- AST [3, 6]: 25.6 ± 3.10 (c) IU/L
- Total Protein [3, 6]: 7.65 ± 0.34 g/dL
- ACP [3, 7]: 9.19 ± 0.71 (f)^ U/L
- ALP [3, 7]: 78 ± 7.21 (f) IU/L
- ALT [3, 7]: 64.3 ± 2(f) ^ IU/L
- AST [3, 7]: 24.8 ± 2.19 (f) IU/L
- Total Protein [3, 7]: 8.60 ± 0.35 g/dL
- ACP, difference in values from alcohol treated mice [3, 6]: B = (a-c = 7.4) U/L
- ALP, difference in values from alcohol treated mice [3, 6]: B = (a-c = 45.9) IU/L
- ALT, difference in values from alcohol treated mice [3, 6]: B = (a-c = 52.1) IU/L
- AST, difference in values from alcohol treated mice [3, 6]: B = (a-c = 35.1) IU/L
- ACP, difference in values from alcohol treated mice [3, 7]: E = (a-f = 9.41) U/L
- ALP, difference in values from alcohol treated mice [3, 7]: E = (a-f = 56) IU/L
- ALT, difference in values from alcohol treated mice [3, 7]: E = (a-f = 41.7) IU/L
- AST, difference in values from alcohol treated mice [3, 7]: E = (a-f = 35.9) IU/L
